Results on three compounds are retold here after PMC8080777, “Discovery, optimization, and evaluation of non-bile acid FXR/TGR5 dual agonists” (Scientific Reports, 2021).

For data set [1], the target named is T1, TGR5 (Homo sapiens, UniProt Q8TDU6).
T1 construct: host or cells: CHO cells
T1 sequence (Q8TDU6 1-330): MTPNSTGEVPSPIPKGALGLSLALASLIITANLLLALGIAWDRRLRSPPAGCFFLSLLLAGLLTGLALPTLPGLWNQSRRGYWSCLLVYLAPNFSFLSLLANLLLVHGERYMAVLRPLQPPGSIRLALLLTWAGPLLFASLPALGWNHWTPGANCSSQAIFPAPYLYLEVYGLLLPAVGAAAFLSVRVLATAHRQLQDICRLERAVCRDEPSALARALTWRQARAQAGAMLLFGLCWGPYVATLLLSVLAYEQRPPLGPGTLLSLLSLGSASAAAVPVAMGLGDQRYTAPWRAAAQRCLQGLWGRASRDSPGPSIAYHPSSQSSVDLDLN
The following applies: cited from earlier work.

The subject of data set [2] is CYP7A1. The experiment in a line: In vivo FXR assay: CYP7A1 in mice liver by real-time PCR. The following applies: CDAHFD-fed C57BL/6J mice, single oral dose 30 and 10 mg/kg, liver four hours after administration. Here is the method: (§1) Test compounds were orally administered to 7-week old male C57BL/6J mice (Nippon Charles River Co., Ltd., Yokohama City, Kanagawa, Japan), that were administered CDAHFD (#A06071302, Research Diets, 20 Jules Lane, New Brunswick, NJ, USA) consisting 60 kcal% fat and 0.1% methionine by weight for 7 days. After four hours of administration, the liver was removed, and total RNA was extracted using a Pure Link RNA Mini Kit (Invitrogen, Thermo Fisher Scientific K. K., Minato-ku, Tokyo, Japan). The concentration of total RNA was measured using Micro Sample Spectrophotometer (SimpliNano, GE Healthcare UK Ltd, Amersham Place Little Chalfont Buckinghamshire, HP7 9NA UK), and cDNA was synthesized using ReverTra Ace qPCR RT Master Mix (Toyobo Co., Ltd., Osaka City, Osaka, Japan). Real-time PCR was performed using a CFX96 Touch Real-Time PCR Analysis System (CFX Manager, Bio-Rad, 1000 Alfred Nobel Drive, Hercules, CA, USA), and the mRNA expression levels of SHP and CYP7A1, the target genes of FXR, were measured using the intercalator method.
(§2) S4. In vitro, in vivo assay, and selectvity.
(§3) To directly evaluate the in vitro agonist activity towards FXR, test compounds were evaluated in CHO cells transfected with FXR responsive luciferase reporter (Nuclear Receptor & In Vitro Toxicology Solutions, Indigo Biosciences, State College, PA, USA). […]
On the technique in general: Real-time PCR tracks product formation cycle by cycle.

Data set [3] can be described thus: Pharmacokinetics in rats. The format is in vivo, Sprague-Dawley rats. The settings on record: for Cmax / half-life / CLtot: n=3; for AUC: n=3, AUC0-24h; for Plasma exposure (in words): oral dose of 3 mg/kg; for CLtot: p.o. On the procedure:
S3. Supplementary Table S1. Pharmacokinetic properties of 20p and 20q after oral administration […]
Determination of Drug Pharmacokinetics in Sprague-Dawley rats.
Blood samples (about 200 µl) were obtained from the jugular vein at 0.083 (intravenous only), 0.25, 0.5, 1, 2, 4, 8, and 24 hours from 16-hour fasted rats. Plasma was obtained from the blood samples by centrifugation at 3000 rpm for 10 minutes at 4 °C. Plasma were deproteinated and centrifuged at 3000 rpm for 10 minutes at 4 °C. Drug concentrations were measured using LC - MSMS (Triple Quad 4500; […]). Area under the plasma concentration -time curve at 0–24h (AUC0–24h) were calculated using the trapezoidal rule. pharmacokinetic parameters were calculated using the Phoenix WinNonlin 6.4 software (Certara […]

Data set [4] relates to SHP mRNA. The experiment in a line: In vivo FXR assay: SHP mRNA in mice liver by real-time PCR. The settings on record: CDAHFD-fed C57BL/6J mice, single oral dose 100, 30 and 10 mg/kg, liver four hours after administration. On the procedure:
as §1, §2, §3

Setting [5] is: Sprague-Dawley, rat, plasma, po, 3mg/kg.
[6] abbreviates: Sprague-Dawley, rat, plasma, iv, 3mg/kg.

In the case of `COC(=O)/C=C/c1cccc(N(Cc2ccc(-c3ccc(N(C)C)cc3)cc2)C(=O)C2CCCCC2)c1` [Compound 7, Fexaramine, reference compound], the “Reported TGR5 activity (in words)” value in data set [1] is listed as “no significant agonist activity against TGR5”.
As for `COc1cc(Cl)cc(N(CC23CCC(c4ccc(OC)c(C#N)c4)(CC2)CC3)C(=O)c2ccncc2C)c1` [Compound 20p], in data set [2], the “Repression of CYP7A1 in the liver” value is listed as “decreased CYP7A1 in the liver”. For the same compound, in data set [3] (setting [5]), the Cmax (in general, the peak of the concentration-time curve) worked out at 50.3 ng/mL; the half-life (commonly how long it takes for the measured level to halve) is 1.45 h; the exposure (AUC) (commonly the area under the concentration-time curve, a measure of exposure) is 121 ng·h/mL. Besides, the “Plasma exposure (in words)” value in data set [3] was “rather low plasma exposure”. In data set [3] (3mg/kg), this compound came in with a CLtot of 426.93 mL/min/kg. Further, the “Induction of SHP mRNA in the liver” value in data set [4] was “dose-dependently induced SHP mRNA in the liver”.
As for `COc1ccc(C23CCC(CN(C(=O)c4ccncc4C)c4cc(Cl)cc(Cl)c4)(CC2)CC3)cc1C#N` [Compound 20q], the “Repression of CYP7A1 in the liver” value in data set [2] is reported as “decreased CYP7A1 in the liver”. In data set [3] (setting [6]), this compound showed a Cmax of 2580 ng/mL, a half-life of 5.04 h and an AUC of 1460 ng·h/mL. In addition, the clearance in data set [3] (Sprague-Dawley, rat, plasma, iv, 3mg/kg, n=3, read-out: CLtot (converted)) is 34.2 mL/min/kg. In data set [3] (setting [5]), this compound showed a Cmax of 3.2 ng/mL, a half-life of 4.52 h and an AUC of 11 ng·h/mL. Further, the “Plasma exposure (in words)” value in data set [3] is “rather low plasma exposure”. The compound further gave a CLtot in data set [3] (3mg/kg) of 2652.33 mL/min/kg. For the same compound, the “Induction of SHP mRNA in the liver” value in data set [4] is “dose-dependently induced SHP mRNA in the liver”.
